Laboratory results published in the NIST ThermoML archive (doi:10.1021/je050173+).
Numbers after ± are expanded uncertainties.

Tests used:
[1] = for surface tension liquid-gas: Maximal bubble pressure; for viscosity / mass density / thermal conductivity: 101.33 kPa; for viscosity / mass density / thermal conductivity / vapor or sublimation pressure: Liquid; for thermal conductivity: Hot wire method
[2] = molar heat capacity at constant pressure; conditions: 101.33 kPa, Liquid

C[Si]1(C)O[Si](C)(C)O[Si](C)(C)O[Si](C)(C)O[Si](C)(C)O1 [decamethylcyclopentasiloxane]
Conditions	mass density [kg/m3]	molar heat capacity at constant pressure [J/K/mol]	surface tension liquid-gas [mN/m]	thermal conductivity [W/m/K]	vapor or sublimation pressure [kPa]	viscosity [mPa·s]
[1], 293.15 K	–	–	18.04 ± 0.16	–	–	4.28 ± 0.13
[1], 295.05 K	956.75 ± 0.75	–	–	–	–	–
[1], 298.15 K	–	–	–	0.1255 ± 0.0005	–	3.87 ± 0.12
[1], 300.1 K	951.14 ± 0.78	–	–	–	–	–
[1], 303.15 K	–	–	17.4 ± 0.16	–	–	3.48 ± 0.11
[1], 303.95 K	946.93 ± 0.81	–	–	–	–	–
[1], 310.3 K	939.94 ± 0.85	–	–	–	–	–
[1], 313.15 K	–	–	16.71 ± 0.16	–	–	2.82 ± 0.09
[1], 313.17 K	936.67 ± 0.87	–	–	–	–	–
[1], 320.5 K	928.72 ± 0.92	–	–	–	–	–
[1], 323.15 K	–	–	15.99 ± 0.15	–	–	2.38 ± 0.07
[1], 325.6 K	923.12 ± 0.96	–	–	–	–	–
[1], 332.95 K	–	–	–	–	–	2.02 ± 0.06
[1], 333.15 K	915.02 ± 1	–	15.42 ± 0.15	–	–	–
[1], 340.9 K	906.3 ± 1.1	–	–	–	–	–
[1], 343.15 K	–	–	14.67 ± 0.15	0.1186 ± 0.0005	–	1.71 ± 0.05
[1], 346.05 K	900.69 ± 1.1	–	–	–	–	–
[1], 348.23 K	–	–	–	–	0.703 ± 0.08	–
[1], 350.87 K	–	–	–	–	0.801 ± 0.08	–
[1], 351.11 K	–	–	–	–	0.82 ± 0.08	–
[1], 353.1 K	892.8 ± 1.1	–	–	–	–	–
[1], 353.15 K	–	–	13.98 ± 0.14	–	–	1.48 ± 0.05
[1], 355.91 K	–	–	–	–	1.103 ± 0.08	–
[1], 357.29 K	–	–	–	–	1.207 ± 0.08	–
[1], 361.2 K	–	–	–	–	1.468 ± 0.081	–
[1], 363.15 K	–	–	13.3 ± 0.14	–	–	–
[1], 366.4 K	878.24 ± 1.2	–	–	–	–	–
[1], 370.08 K	–	–	–	–	2.381 ± 0.081	–
[1], 373.15 K	870.77 ± 1.3	–	12.64 ± 0.14	–	–	1.11 ± 0.04
[1], 374.37 K	–	–	–	–	2.913 ± 0.081	–
[1], 377.85 K	–	–	–	–	3.452 ± 0.081	–
[1], 378.07 K	–	–	–	–	3.482 ± 0.081	–
[1], 380.74 K	–	–	–	–	3.901 ± 0.082	–
[1], 381.7 K	861.4 ± 1.4	–	–	–	–	–
[1], 391.9 K	850.17 ± 1.4	–	–	–	–	–
[1], 393.15 K	–	–	11.28 ± 0.13	–	–	0.86 ± 0.03
[1], 394.66 K	–	–	–	–	7.191 ± 0.083	–
[1], 397 K	844.55 ± 1.5	–	–	–	–	–
[1], 398.63 K	–	–	–	–	8.45 ± 0.084	–
[1], 402.72 K	–	–	–	–	9.938 ± 0.084	–
[1], 407.2 K	833.32 ± 1.6	–	–	–	–	–
[1], 412.81 K	–	–	–	–	14.52 ± 0.086	–
[1], 413.15 K	826.73 ± 1.6	–	9.93 ± 0.12	–	–	0.69 ± 0.02
[1], 416.46 K	–	–	–	–	16.55 ± 0.088	–
[1], 417.4 K	822.08 ± 1.6	–	–	–	–	–
[1], 422.5 K	816.45 ± 1.7	–	–	–	–	–
[1], 423.94 K	–	–	–	–	21.39 ± 0.09	–
[1], 432.91 K	–	–	–	–	28.6 ± 0.093	–
[1], 433.15 K	804.71 ± 1.8	–	8.57 ± 0.12	–	–	–
[1], 439.98 K	–	–	–	–	35.47 ± 0.097	–
[1], 442.9 K	793.98 ± 1.9	–	–	–	–	–
[1], 448.41 K	–	–	–	–	45.28 ± 0.1	–
[1], 453.15 K	782.6 ± 2	–	–	–	–	0.46 ± 0.02
[1], 455.39 K	–	–	–	–	54.85 ± 0.11	–
[1], 462.39 K	–	–	–	–	66.09 ± 0.11	–
[1], 473.15 K	–	–	–	–	–	0.39 ± 0.02
[1], 479.53 K	–	–	–	–	100.9 ± 0.13	–
[1], 493.15 K	–	–	–	–	–	0.33 ± 0.01
[2], 288.78 K	–	636.3 ± 4.9	–	–	–	–
[2], 293.13 K	–	638.5 ± 4.9	–	–	–	–
[2], 297.95 K	–	640.6 ± 5	–	–	–	–
[2], 303.18 K	–	643.1 ± 5	–	–	–	–
[2], 308.95 K	–	644.5 ± 5	–	–	–	–
[2], 313.15 K	–	647.7 ± 5	–	–	–	–
[2], 319 K	–	650.4 ± 5	–	–	–	–
[2], 323.15 K	–	652.4 ± 5.1	–	–	–	–
[2], 329.05 K	–	655.1 ± 5.1	–	–	–	–
[2], 334.74 K	–	657.9 ± 5.1	–	–	–	–
[2], 338.5 K	–	659.5 ± 5.1	–	–	–	–
[2], 342.08 K	–	661.2 ± 5.1	–	–	–	–
[2], 349.25 K	–	664.5 ± 5.1	–	–	–	–
[2], 352.2 K	–	667.1 ± 5.2	–	–	–	–
[2], 356.83 K	–	668 ± 5.2	–	–	–	–
[2], 361.28 K	–	670.1 ± 5.2	–	–	–	–
[2], 366.35 K	–	672.4 ± 5.2	–	–	–	–
[2], 370.25 K	–	674.2 ± 5.2	–	–	–	–
[2], 375.43 K	–	676.6 ± 5.2	–	–	–	–
[2], 380.95 K	–	679.1 ± 5.3	–	–	–	–
[2], 388.65 K	–	682.5 ± 5.3	–	–	–	–
[2], 391.43 K	–	684 ± 5.3	–	–	–	–
[2], 399.84 K	–	687.9 ± 5.3	–	–	–	–
[2], 401.55 K	–	688.6 ± 5.3	–	–	–	–
[2], 407.15 K	–	691.2 ± 5.4	–	–	–	–
[2], 412.77 K	–	693.8 ± 5.4	–	–	–	–
[2], 419.95 K	–	697.1 ± 5.4	–	–	–	–
[2], 425.95 K	–	698.5 ± 5.4	–	–	–	–
[2], 433.28 K	–	703.2 ± 5.4	–	–	–	–
[2], 439.98 K	–	706.3 ± 5.5	–	–	–	–
[2], 444.9 K	–	709.2 ± 5.5	–	–	–	–
[2], 452.4 K	–	711.9 ± 5.5	–	–	–	–
[2], 463.15 K	–	716.9 ± 5.6	–	–	–	–
[2], 469.05 K	–	719.5 ± 5.6	–	–	–	–
[2], 473.15 K	–	721.5 ± 5.6	–	–	–	–
